# Results published in patent US8153808B2, “Dihydropyridone amides as P2X7 modulators” (Roche Palo Alto LLC, priority 2008, dated 2012).
# Biological target: T1, P2X7 (UniProt Q99572)
# T1 sequence (Q99572 1-595): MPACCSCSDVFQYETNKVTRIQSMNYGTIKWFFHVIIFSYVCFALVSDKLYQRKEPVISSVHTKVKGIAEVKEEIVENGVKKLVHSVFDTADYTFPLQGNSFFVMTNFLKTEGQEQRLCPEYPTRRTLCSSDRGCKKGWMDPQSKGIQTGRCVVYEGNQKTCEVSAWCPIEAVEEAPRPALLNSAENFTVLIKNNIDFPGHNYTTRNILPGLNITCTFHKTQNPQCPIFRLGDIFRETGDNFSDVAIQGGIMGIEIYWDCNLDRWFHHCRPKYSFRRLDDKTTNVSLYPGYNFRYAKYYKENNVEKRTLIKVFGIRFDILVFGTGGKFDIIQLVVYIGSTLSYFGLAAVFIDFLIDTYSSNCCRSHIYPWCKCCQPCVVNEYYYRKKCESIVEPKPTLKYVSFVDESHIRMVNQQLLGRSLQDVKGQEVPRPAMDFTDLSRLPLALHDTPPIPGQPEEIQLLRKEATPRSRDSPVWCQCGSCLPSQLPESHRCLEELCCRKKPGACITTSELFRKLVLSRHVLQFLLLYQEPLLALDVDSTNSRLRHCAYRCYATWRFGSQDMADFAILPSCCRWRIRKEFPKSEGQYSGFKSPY
# Assay: pIC50 values for P2X7 (Table 1)
# Format: cell-based
# Experimental: Intracellular Calcium Flux (FLIPR) Assay
# Stock solutions of compounds were prepared from powders as a 10 mM DMSO stock solution. These solutions were stored at RT during the two week period of these experiments to prevent freeze-thaw of the DMSO stocks. The DMSO stocks were added to the appropriate assay buffer at a concentration of 10 μM, and then diluted serially to the final concentrations that were tested. […] The aqueous solutions of compounds as well as ATP (Sigma A7699) and BzATP (Sigma B6396) were prepared fresh for each day of experiment.
# 1321N1 cells stably expressing the full length human P2X7 gene (1321N1-hP2X7) and HEK293 cells stably expressing the full length rat P2X7 gene (HEK293-rP2X7) were obtained from the Roche Cell Culture Facility. 1321N1-hP2X7 cells were grown in Dulbecco's Modified Eagle's Medium (DMEM) high glucose supplemented with 10% FBS and 250 μg/mL G418. HEK293-rP2X7 cells were grown in DMEM/F-12 supplemented with 10% FBS, 1 mM CaCl2, 2 mM MgCl2, 2 mM L-Glutamine and 500 μg/ml G418. Cells were split such that they never became >70% confluent.
# On the day prior to the experiment, 1321N1-hP2X7 or HEK293-rP2X7 cells were released into suspension with calcium-free PBS+Versene and washed by centrifugation with calcium-free PBS to remove the Versene. Cells were resuspended in growth medium at a density of 2.5×10^5 cells/mL and seeded into black walled, clear bottom 96 well plates (50,000 cells/well) approximately 18 hr prior to intracellular calcium flux experiments.
# On the day of the experiment, plates were washed with FLIPR buffer (calcium- and magnesium-free Hank's Balanced Salt Solution (HBSS) supplemented with 10 mM Hepes, 2.5 mM probenecid and 2 mM calcium chloride) using a BIO-TEK 96 channel plate washer and incubated with […] fluo-3 dye at 37° C. for one hr. The dye was then removed by plate washing and the cells were allowed to equilibrate for 20 min at room temperature with antagonist or vehicle (FLIPR buffer). Agonist (100 μM BzATP final concentration for hP2X7; 5 μM BzATP final concentration or rP2X7) was added online with the FLIPR and fluorescence measurements made at 1 sec intervals for 60 sec followed by 3 sec intervals for a further 4 min (5 min total). A final addition of 5 μM ionomycin was made and the maximal BzATP-evoked fluorescence normalized to the maximal ionomycin-evoked fluorescence.
row,pIC50 P2X7,Structure (SMILES)
1,6.984,"COc1cc(I)c(CC(=O)N2C=CC(=O)CC2c2ccccc2)cc1OC (stereo not drawn) [Compound 1, 1-[2-(2-Iodo-4,5-dimethoxy-phenyl)-acetyl]-2-phenyl-2,3-dihydro-1H-pyridin-4-one]"
2,5.963,"COc1cc(I)c(CC(=O)N2C=CC(=O)CC2c2ccccc2C)cc1OC (stereo not drawn) [Compound 2, 1-[2-(2-Iodo-4,5-dimethoxy-phenyl)-acetyl]-2-o-tolyl-2,3-dihydro-1H-pyridin-4-one]"
3,7.418,"COc1cc(I)c(CC(=O)N2C=CC(=O)C[C@H]2c2ccccc2)cc1OC [Compound 4, (S)-1-[2-(2-Iodo-4,5-dimethoxy-phenyl)-acetyl]-2-phenyl-2,3-dihydro-1H-pyridin-4-one]"
4,5.425,"COc1cc(I)c(CC(=O)N2C=CC(=O)C[C@@H]2c2ccccc2)cc1OC [Compound 5, (R)-1-[2-(2-Iodo-4,5-dimethoxy-phenyl)-acetyl]-2-phenyl-2,3-dihydro-1H-pyridin-4-one]"
5,6.97,"COc1cc(I)c(CC(=O)N2C=CC(=O)CC2c2ccc(F)cc2)cc1OC (stereo not drawn) [Compound 6, 2-(4-Fluoro-phenyl)-1-[2-(2-iodo-4,5-dimethoxy-phenyl)-acetyl]-2,3-dihydro-1H-pyridin-4-one]"
6,6.765,"COc1ccc(Br)c(CC(=O)N2C=CC(=O)CC2c2ccccc2)c1 (stereo not drawn) [Compound 7, 1-[2-(2-Bromo-5-methoxy-phenyl)-acetyl]-2-phenyl-2,3-dihydro-1H-pyridin-4-one]"
7,5.685,"COc1ccc(CC(=O)N2C=CC(=O)CC2c2ccccc2)c(Br)c1 (stereo not drawn) [Compound 8, 1-[2-(2-Bromo-4-methoxy-phenyl)-acetyl]-2-phenyl-2,3-dihydro-1H-pyridin-4-one]"
8,5.45,"COc1cc(Br)c(CC(=O)N2C=CC(=O)CC2C(C)C)cc1OC (stereo not drawn) [Compound 9, 1-[2-(2-Bromo-4,5-dimethoxy-phenyl)-acetyl]-2-isopropyl-2,3-dihydro-1H-pyridin-4-one]"
9,7.193,"COc1cc(Br)c(CC(=O)N2C=CC(=O)CC2C2CCCCC2)cc1OC (stereo not drawn) [Compound 10, 1-[2-(2-Bromo-4,5-dimethoxy-phenyl)-acetyl]-2-cyclohexyl-2,3-dihydro-1H-pyridin-4-one]"
10,6.806,"COc1cc(Cl)c(CC(=O)N2C=CC(=O)CC2c2ccccc2)cc1OC (stereo not drawn) [Compound 11, 1-[2-(2-Chloro-4,5-dimethoxy-phenyl)-acetyl]-2-phenyl-2,3-dihydro-1H-pyridin-4-one]"
11,5.305,"O=C1C=CN(C(=O)Cc2cc3c(cc2Br)OCCO3)C(c2ccccc2)C1 (stereo not drawn) [Compound 12, 1-[2-(7-Bromo-2,3-dihydro-benzo[1,4]dioxin-6-yl)-acetyl]-2-phenyl-2,3-dihydro-1H-pyridin-4-one]"
12,7.22,"COc1cc(Br)c(CC(=O)N2C=CC(=O)C[C@H]2c2ccccc2)cc1OC [Compound 13, (S)-1-[2-(2-Bromo-4,5-dimethoxy-phenyl)-acetyl]-2-phenyl-2,3-dihydro-1H-pyridin-4-one]"
13,6.705,"COc1cc(Cl)c(CC(=O)N2C=CC(=O)C[C@H]2c2ccccc2)cc1OC [Compound 14, (S)-1-[2-(2-Chloro-4,5-dimethoxy-phenyl)-acetyl]-2-phenyl-2,3-dihydro-1H-pyridin-4-one]"
14,5.395,"COc1cc(CC(=O)N2C=CC(=O)CC2c2ccccc2)c(C(F)(F)F)cc1OC (stereo not drawn) [Compound 15, 1-[2-(4,5-Dimethoxy-2-trifluoromethyl-phenyl)-acetyl]-2-phenyl-2,3-dihydro-1H-pyridin-4-one]"
15,7.17,"CCOc1cc(CC(=O)N2C=CC(=O)C[C@H]2c2ccc(F)cc2)c(Br)cc1OC [Compound 16, (S)-1-[2-(2-Bromo-5-ethoxy-4-methoxy-phenyl)-acetyl]-2-(4-fluoro-phenyl)-2,3-dihydro-1H-pyridin-4-one]"
16,6.535,"CCOc1cc(Br)c(CC(=O)N2C=CC(=O)C[C@H]2c2ccc(F)cc2)cc1OC [Compound 17, (S)-1-[2-(2-Bromo-4-ethoxy-5-methoxy-phenyl)-acetyl]-2-(4-fluoro-phenyl)-2,3-dihydro-1H-pyridin-4-one]"
17,6.93,"COc1cc(Br)c(CC(=O)N2C=CC(=O)C[C@H]2c2ccc(F)cc2)cc1OCC1CC1 [Compound 18, (S)-1-[2-(2-Bromo-5-cyclopropylmethoxy-4-methoxy-phenyl)-acetyl]-2-(4-fluoro-phenyl)-2,3-dihydro-1H-pyridin-4-one]"
18,7.6125,"COc1cc(Br)c(CC(=O)N2C=CC(=O)C[C@H]2c2ccc(F)cc2)cc1OC [Compound 19, (S)-1-[2-(2-Bromo-4,5-dimethoxy-phenyl)-acetyl]-2-(4-fluoro-phenyl)-2,3-dihydro-1H-pyridin-4-one]"
19,6.08,"COc1cc(CC(=O)N2C=CC(=O)C[C@H]2c2ccc(F)cc2)c(Br)cc1OCC1CC1 [Compound 20, (S)-1-[2-(2-Bromo-4-cyclopropylmethoxy-5-methoxy-phenyl)-acetyl]-2-(4-fluoro-phenyl)-2,3-dihydro-1H-pyridin-4-one]"
20,7.165,"COc1cc(Br)c(CC(=O)N2C=CC(=O)CC2c2ccc(F)cc2)cc1OC (stereo not drawn) [Compound 22, 1-[2-(2-Bromo-4,5-dimethoxy-phenyl)-acetyl]-2-(4-fluoro-phenyl)-2,3-dihydro-1H-pyridin-4-one]"
21,6.305,"COc1cc(Br)c(CC(=O)N2C=CC(=O)C[C@H]2c2ccc(F)cc2)cc1OC(F)F [Compound 24, (S)-1-[2-(2-Bromo-5-difluoromethoxy-4-methoxy-phenyl)-acetyl]-2-(4-fluoro-phenyl)-2,3-dihydro-1H-pyridin-4-one]"
22,6.28,"COc1cc(Br)c(CC(=O)N2C=CC(=O)CC2c2cccc(Cl)c2)cc1OC (stereo not drawn) [Compound 25, 1-[2-(2-Bromo-4,5-dimethoxy-phenyl)-acetyl]-2-(3-chloro-phenyl)-2,3-dihydro-1H-pyridin-4-one]"
23,5.895,"O=C1C=CN(C(=O)Cc2cc(OC(F)F)c(OC(F)F)cc2Br)[C@H](c2ccc(F)cc2)C1 [Compound 26, (S)-1-[2-(2-Bromo-4,5-bis-difluoromethoxy-phenyl)-acetyl]-2-(4-fluoro-phenyl)-2,3-dihydro-1H-pyridin-4-one]"
24,6.35,"COc1cc(Br)c(CC(=O)N2C=CC(=O)CC2C2CCCC2)cc1OC (stereo not drawn) [Compound 27, 1-[2-(2-Bromo-4,5-dimethoxy-phenyl)-acetyl]-2-cyclopentyl-2,3-dihydro-1H-pyridin-4-one]"
25,5.415,"COc1cccc(C2CC(=O)C=CN2C(=O)Cc2cc(OC)c(OC)cc2Br)c1 (stereo not drawn) [Compound 28, 1-[2-(2-Bromo-4,5-dimethoxy-phenyl)-acetyl]-2-(3-methoxy-phenyl)-2,3-dihydro-1H-pyridin-4-one]"
26,6.625,"COc1cc(CC(=O)N2C=CC(=O)C[C@H]2c2ccc(F)cc2)c(Br)cc1C [Compound 29, (S)-1-[2-(2-Bromo-5-methoxy-4-methyl-phenyl)-acetyl]-2-(4-fluoro-phenyl)-2,3-dihydro-1H-pyridin-4-one]"
27,6.4,"COc1cc(CC(=O)N2C=CC(=O)C[C@H]2c2ccc(F)cc2)c(Br)cc1Cl [Compound 30, (S)-1-[2-(2-Bromo-4-chloro-5-methoxy-phenyl)-acetyl]-2-(4-fluoro-phenyl)-2,3-dihydro-1H-pyridin-4-one]"
